Reference: the NIST ThermoML archive (doi:10.1016/j.jct.2007.02.009)
± gives the expanded uncertainty stated by the source.

Key:
[1] = Crystal; Adiabatic calorimetry
[2] = Molar enthalpy of transition or fusion; settings: Crystal; Adiabatic calorimetry

**Q.** With `CC(=O)N(C)C` [N,N-dimethylethanamide] as the compound, how does the Triple point temperature [1] read?
**A.** Its Triple point temperature is 254.23 ± 0.18 K.

**Q.** What about the “Molar enthalpy of transition or fusion” value [2] of the same compound?
**A.** Its value is 2.44 ± 0.0598 kcal/mol.
